From patent US11999737B2, “Kinase inhibitors and related methods of use” (Duke University, priority 2014, dated 2024)

Assays:
Src = Src (Homo sapiens, UniProt P12931); test: 33P-ATP filter-binding kinase assay (kinome profile); assay type: biochemical; details: 10 μM HS38
RLC20 phosphorylation [1] = test: RLC20 phosphorylation in serum-starved aortic smooth muscle cells; assay type: cell-based, mouse; details: 30 min
Description: A, Typical myograph force trace showing the effect of HS38 on intact mouse aorta contractility. The maximum contractile force of PE-induced contraction was reduced by approximately 30% when HS38 (10 μM) was added five minutes prior to PE addition and by approximately 40% when added ten minutes after PE addition. B, Serum-starved aortic SM cells were treated with SIP (0.25 μM) and HS-38 (±50 μM) for 30 min.
For Western blots, tissues and cultured cells were lysed in 1% SDS, NaCl (300 mM), Tris-HCl (50 mM, pH 7.5), subjected to SDS-PAGE, transferred to polyvinylidene difluoride membrane (Millipore) and visualized using the Odyssey System (Li-Cor). For Odyssey imaging, the membranes were blocked with Odyssey Blocking Buffer and then subjected to anti-MYPT1 (1:2,000) (BD Transduction), phospho-MYPT1 (Thr696) (1:1,000) (Millipore), RLC20 (1:2000) (Sigma) and phospho-RLC20 (1:1000) (Cell Signaling Technology) antibodies. Antibodies were diluted in appropriate blocking buffer. The membranes were washed in TBS with 0.05% Tween 20. Primary antibodies were visualized using secondary antibodies conjugated to Alexa 680 (Invitrogen) or IRDye800 (Li-Cor).
Cell Culture: Mouse aortic SM cells were prepared. The cell line was cultured in AmnioMax medium (Gibco) supplemented with 10% embryonic stem cell-qualified fetal bovine serum (Invitrogen) and penicillin-streptomycin (Invitrogen). […]

rabbit ileum = test: Carbachol-induced Ca2+-sensitized force in α-toxin permeabilized rabbit ileum; details: HS38 50 μM, at 20 min, pCa 6.5
Description: A. Typical force trace and graphical representation showing the effect of HS38 (50 μM) on carbachol-induced, Ca^2+ sensitized force in α-toxin permeabilized rabbit ileum. HS38 induced an approximate 30% decrease in the plateaued force at 20 min. (mean±S.E., n=7). B, Western blot analysis of RLC20 and MYPT1 Thr696 phosphorylation following treatment with HS38 (50 μM). […] C. Typical force trace showing the effect, of HS38 on Ca^2+-independent force production in rabbit ileum smooth muscle. […] E. Both the lag time to the onset of force (p <0.05, n=3) and the rate of force development (t1/2) (p <0.02, n=3) were increased following the addition of MC-LR in the presence of HS38 (mean±S.E., n=3).
Tissue Preparation and Force Measurements. […] Intact strips of mouse abdominal aorta were challenged with phenylephrine following pretreatment with HS38 or diluent, DMSO or HS38 and DMSO were added after maximal phenylephrine-induced force was achieved and force output measured. […] For Ca^2+ activating solutions, EGTA (10 mM) and a calculated amount of Ca-methanesulfonate was added to give the desired free Ca^2+ concentration ((Horiuti (1988) J. Physiol.-London 398, 131-148). […]

RLC20 phosphorylation [2] = test: Western blot of RLC20 phosphorylation in Ca2+-sensitized rabbit ileum; details: HS38 50 μM
Description: To examine the effect of ZIPK inhibition on sensitized force, muscle strips were stimulated with an intermediate calcium concentration solution (pCa 6.5). Once force reached a plateau, strips were Ca^2+-sensitized by the addition of the agonist carbachol (5 μM). Up to 2 μM of GTP was added together with the sensitizing agonist to compensate for possible loss of GTP during permeabilization. At the plateau of Ca-sensitized force (5-10 min upon stimulation), the ZIPK inhibitor, HS38 (50 μM) or diluent (0.1% DMSO) was added and the force relaxation time course was recorded. Tissue samples were frozen 20 min after the addition of HS38 for biochemical assays of RLC20 and MYPT1 phosphorylation.
MYPT1 and RLC20 phosphorylation: To examine the phosphorylation of MYPT1 and RLC20, rabbit ileum SM strips were treated as described above and previously reported. (Gong et al. (1995), J. Physiol.-London 486, 113-122; Kitazawa et al. (1989) J. Biol. Chem. 264, 5339-5342; Kobayashi et al. (1991) Am. J. Physiol. 260, C364-C370), Following the stimulation protocols, muscle strips were immediately frozen by immersion in −80° C. acetone with trichloroacetic acid (10% w/v) and stored at −80° C. […] Phosphorylation of MYPT1 Thr696 and of RLC20 was determined by SDS-PAGE and Western blotting. […]

Src, sequence (P12931 whole entry): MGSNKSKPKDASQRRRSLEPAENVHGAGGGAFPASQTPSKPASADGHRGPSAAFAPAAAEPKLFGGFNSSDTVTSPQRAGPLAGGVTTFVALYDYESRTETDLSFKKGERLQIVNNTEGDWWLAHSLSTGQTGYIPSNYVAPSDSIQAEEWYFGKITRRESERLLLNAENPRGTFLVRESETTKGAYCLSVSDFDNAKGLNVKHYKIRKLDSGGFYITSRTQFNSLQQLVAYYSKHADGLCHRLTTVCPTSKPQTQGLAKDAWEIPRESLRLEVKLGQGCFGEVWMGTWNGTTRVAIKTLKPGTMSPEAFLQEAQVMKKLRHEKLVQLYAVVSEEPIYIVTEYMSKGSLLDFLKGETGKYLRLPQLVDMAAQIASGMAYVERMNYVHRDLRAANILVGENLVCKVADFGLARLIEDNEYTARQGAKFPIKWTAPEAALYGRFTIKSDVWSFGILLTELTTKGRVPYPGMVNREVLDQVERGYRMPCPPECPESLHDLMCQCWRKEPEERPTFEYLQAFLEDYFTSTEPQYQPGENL

CC(Sc1nc2c(cnn2-c2cccc(Cl)c2)c(=O)[nH]1)C(N)=O (centres unmarked) [HS38]
inhibition at 10 µM (Src): 0%
RLC20 phosphorylation, basal (unstimulated) state (RLC20 phosphorylation [1]; 50 μM, p <0.0002, n=8): significantly decreased
RLC20 phosphorylation, S1P stimulated state (RLC20 phosphorylation [1]; S1P 0.25 μM, HS38 50 μM, p <0.004, n=8): significantly decreased
decrease in plateaued carbachol-induced Ca2+-sensitized force (rabbit ileum): ~30%
RLC20 phosphorylation level (RLC20 phosphorylation [2]): significantly reduced
